Assay results taken from ChEMBL document CHEMBL1137480, “Synthesis and structure-activity relationship of 7-(substituted)-aminomethyl-4-quinolone-3-carboxylic acid derivatives” (2007).
Converted amounts (≈) assume the structure as drawn.

Legend:
Assay type in all cases: functional
Staphylococcus aureus = assay: Antibacterial activity against Staphylococcus aureus 26003 after 24 hrs by agar dilution method
[1] = test system: Staphylococcus epidermidis; assay: Antibacterial activity against Staphylococcus epidermidis 26069 after 24 hrs by agar dilution method
Streptococcus pneumoniae = assay: Antibacterial activity against Streptococcus pneumoniae 31002 after 24 hrs by agar dilution method
Shigella boydii = assay: Antibacterial activity against Shigella boydii 51313 after 24 hrs by agar dilution method
Klebsiella pneumoniae = assay: Antibacterial activity against Klebsiella pneumoniae 46101 after 24 hrs by agar dilution method
Salmonella = assay: Antibacterial activity against […] 48107 after 24 hrs by agar dilution method

Row | MIC (Staphylococcus aureus) | MIC [1] | MIC (Streptococcus pneumoniae) | MIC (Shigella boydii) | MIC (Klebsiella pneumoniae) | MIC (Salmonella) | SMILES
1 | 0.195 µg/mL (≈ 0.482 µM) | 1.56 µg/mL (≈ 3.85 µM) | ≤ 0.049 µg/mL | 0.78 µg/mL (≈ 1.93 µM) | 1.56 µg/mL (≈ 3.85 µM) | 1.56 µg/mL (≈ 3.85 µM) | O=C(O)c1cn(C2CC2)c2c(F)c(CNc3cccc(Cl)c3)c(F)cc2c1=O
2 | 12.5 µg/mL (≈ 33.1 µM) | 12.5 µg/mL (≈ 33.1 µM) | 1.56 µg/mL (≈ 4.13 µM) | 1.56 µg/mL (≈ 4.13 µM) | 1.56 µg/mL (≈ 4.13 µM) | 1.56 µg/mL (≈ 4.13 µM) | CN1CCN(Cc2c(F)cc3c(=O)c(C(=O)O)cn(C4CC4)c3c2F)CC1
3 | 3.13 µg/mL (≈ 9.36 µM) | 6.25 µg/mL (≈ 18.7 µM) | 0.195 µg/mL (≈ 0.583 µM) | 0.098 µg/mL (≈ 0.293 µM) | ≤ 0.049 µg/mL | 0.098 µg/mL (≈ 0.293 µM) | O=C(O)c1cn(C2CC2)c2c(F)c(CNC3CC3)c(F)cc2c1=O
4 | > 6.25 µg/mL | > 6.25 µg/mL | 3.13 µg/mL (≈ 9.31 µM) | 0.195 µg/mL (≈ 0.58 µM) | 0.39 µg/mL (≈ 1.16 µM) | 0.098 µg/mL (≈ 0.291 µM) | CCCNCc1c(F)cc2c(=O)c(C(=O)O)cn(C3CC3)c2c1F
5 | 6.25 µg/mL (≈ 17.2 µM) | 6.25 µg/mL (≈ 17.2 µM) | 6.25 µg/mL (≈ 17.2 µM) | 0.78 µg/mL (≈ 2.15 µM) | 0.195 µg/mL (≈ 0.537 µM) | 0.195 µg/mL (≈ 0.537 µM) | O=C(O)c1cn(C2CC2)c2c(F)c(CN3CCNCC3)c(F)cc2c1=O
6 | 0.78 µg/mL (≈ 2.01 µM) | 1.56 µg/mL (≈ 4.02 µM) | 0.049 µg/mL (≈ 0.126 µM) | 0.195 µg/mL (≈ 0.502 µM) | 0.78 µg/mL (≈ 2.01 µM) | 0.39 µg/mL (≈ 1 µM) | O=C(O)c1cn(C2CC2)c2c(F)c(CNc3ccc(F)cc3)c(F)cc2c1=O
7 | 0.39 µg/mL (≈ 0.922 µM) | 1.56 µg/mL (≈ 3.69 µM) | 0.39 µg/mL (≈ 0.922 µM) | 1.56 µg/mL (≈ 3.69 µM) | 1.56 µg/mL (≈ 3.69 µM) | 0.78 µg/mL (≈ 1.84 µM) | O=C(O)c1cn(C2CC2)c2c(F)c(CNc3ccc(F)c(Cl)c3)c(F)cc2c1=O
8 | 0.39 µg/mL (≈ 1.01 µM) | 1.56 µg/mL (≈ 4.06 µM) | 0.049 µg/mL (≈ 0.127 µM) | 0.39 µg/mL (≈ 1.01 µM) | 1.56 µg/mL (≈ 4.06 µM) | 0.78 µg/mL (≈ 2.03 µM) | Cc1ccc(NCc2c(F)cc3c(=O)c(C(=O)O)cn(C4CC4)c3c2F)cc1
9 | > 6.25 µg/mL | > 6.25 µg/mL | 0.78 µg/mL (≈ 2.42 µM) | ≤ 0.049 µg/mL | ≤ 0.049 µg/mL | 0.195 µg/mL (≈ 0.605 µM) | CCNCc1c(F)cc2c(=O)c(C(=O)O)cn(C3CC3)c2c1F
10 | 0.39 µg/mL (≈ 0.963 µM) | 1.56 µg/mL (≈ 3.85 µM) | ≤ 0.049 µg/mL | 1.56 µg/mL (≈ 3.85 µM) | 1.56 µg/mL (≈ 3.85 µM) | 1.56 µg/mL (≈ 3.85 µM) | O=C(O)c1cn(C2CC2)c2c(F)c(CNc3ccc(Cl)cc3)c(F)cc2c1=O
11 | 0.39 µg/mL (≈ 0.976 µM) | 1.56 µg/mL (≈ 3.91 µM) | 0.098 µg/mL (≈ 0.245 µM) | 0.39 µg/mL (≈ 0.976 µM) | 0.78 µg/mL (≈ 1.95 µM) | 0.78 µg/mL (≈ 1.95 µM) | Cc1cc(C)nc(NCc2c(F)cc3c(=O)c(C(=O)O)cn(C4CC4)c3c2F)c1
12 | 0.39 µg/mL (≈ 0.979 µM) | 0.78 µg/mL (≈ 1.96 µM) | 0.098 µg/mL (≈ 0.246 µM) | 1.56 µg/mL (≈ 3.92 µM) | 1.56 µg/mL (≈ 3.92 µM) | 1.56 µg/mL (≈ 3.92 µM) | Cc1ccc(NCc2c(F)cc3c(=O)c(C(=O)O)cn(C4CC4)c3c2F)cc1C
13 | 0.78 µg/mL (≈ 2.11 µM) | 1.56 µg/mL (≈ 4.21 µM) | 0.049 µg/mL (≈ 0.132 µM) | 0.39 µg/mL (≈ 1.05 µM) | 0.78 µg/mL (≈ 2.11 µM) | 0.39 µg/mL (≈ 1.05 µM) | O=C(O)c1cn(C2CC2)c2c(F)c(CNc3ccccc3)c(F)cc2c1=O
14 | > 6.25 µg/mL | > 6.25 µg/mL | 3.13 µg/mL (≈ 8.93 µM) | 0.39 µg/mL (≈ 1.11 µM) | ≤ 0.049 µg/mL | 0.195 µg/mL (≈ 0.557 µM) | CCCCNCc1c(F)cc2c(=O)c(C(=O)O)cn(C3CC3)c2c1F
15 | > 6.25 µg/mL | > 6.25 µg/mL | 1.56 µg/mL (≈ 4.45 µM) | 0.195 µg/mL (≈ 0.557 µM) | 0.098 µg/mL (≈ 0.28 µM) | ≤ 0.049 µg/mL | CC(C)CNCc1c(F)cc2c(=O)c(C(=O)O)cn(C3CC3)c2c1F
16 | > 6.25 µg/mL | 6.25 µg/mL (≈ 16.6 µM) | 1.56 µg/mL (≈ 4.14 µM) | 0.78 µg/mL (≈ 2.07 µM) | 0.195 µg/mL (≈ 0.518 µM) | 0.195 µg/mL (≈ 0.518 µM) | O=C(O)c1cn(C2CC2)c2c(F)c(CNC3CCCCC3)c(F)cc2c1=O
17 | 6.25 µg/mL (≈ 18.1 µM) | > 6.25 µg/mL | 0.78 µg/mL (≈ 2.26 µM) | 0.39 µg/mL (≈ 1.13 µM) | 0.195 µg/mL (≈ 0.565 µM) | 0.195 µg/mL (≈ 0.565 µM) | O=C(O)c1cn(C2CC2)c2c(F)c(Cn3ccnc3)c(F)cc2c1=O
18 | 3.13 µg/mL (≈ 7.86 µM) | 6.25 µg/mL (≈ 15.7 µM) | 3.13 µg/mL (≈ 7.86 µM) | 3.13 µg/mL (≈ 7.86 µM) | 6.25 µg/mL (≈ 15.7 µM) | 3.13 µg/mL (≈ 7.86 µM) | CCN(Cc1c(F)cc2c(=O)c(C(=O)O)cn(C3CC3)c2c1F)c1ccccc1
19 | > 6.25 µg/mL | > 6.25 µg/mL | 3.13 µg/mL (≈ 10.6 µM) | 0.39 µg/mL (≈ 1.32 µM) | 0.195 µg/mL (≈ 0.658 µM) | 0.39 µg/mL (≈ 1.32 µM) | CCn1cc(C(=O)O)c(=O)c2cc(F)c(CNC)c(F)c21
20 | > 6.25 µg/mL | > 6.25 µg/mL | 3.13 µg/mL (≈ 10.1 µM) | 0.39 µg/mL (≈ 1.26 µM) | 0.195 µg/mL (≈ 0.628 µM) | 0.39 µg/mL (≈ 1.26 µM) | CCNCc1c(F)cc2c(=O)c(C(=O)O)cn(CC)c2c1F
21 | > 6.25 µg/mL | > 6.05 µg/mL | 1.56 µg/mL (≈ 4.87 µM) | 0.195 µg/mL (≈ 0.609 µM) | 0.049 µg/mL (≈ 0.153 µM) | 0.195 µg/mL (≈ 0.609 µM) | CCNCc1c(F)cc2c(=O)c(C(=O)O)cn3c2c1OC[C@@H]3C
22 | > 6.25 µg/mL | > 6.25 µg/mL | 3.13 µg/mL (≈ 9.36 µM) | 0.39 µg/mL (≈ 1.17 µM) | 0.195 µg/mL (≈ 0.583 µM) | 0.39 µg/mL (≈ 1.17 µM) | CCCNCc1c(F)cc2c(=O)c(C(=O)O)cn3c2c1OC[C@@H]3C
23 | > 6.25 µg/mL | > 6.25 µg/mL | 3.13 µg/mL (≈ 9.36 µM) | 0.39 µg/mL (≈ 1.17 µM) | 0.195 µg/mL (≈ 0.583 µM) | 0.39 µg/mL (≈ 1.17 µM) | CC(C)NCc1c(F)cc2c(=O)c(C(=O)O)cn3c2c1OC[C@@H]3C
24 | 3.13 µg/mL (≈ 9.42 µM) | > 6.25 µg/mL | 0.39 µg/mL (≈ 1.17 µM) | 0.049 µg/mL (≈ 0.147 µM) | 0.049 µg/mL (≈ 0.147 µM) | 0.049 µg/mL (≈ 0.147 µM) | C[C@H]1COc2c(CNC3CC3)c(F)cc3c(=O)c(C(=O)O)cn1c23
25 | 6.25 µg/mL (≈ 18 µM) | > 6.25 µg/mL | 0.78 µg/mL (≈ 2.25 µM) | 0.39 µg/mL (≈ 1.13 µM) | 0.049 µg/mL (≈ 0.141 µM) | 0.098 µg/mL (≈ 0.283 µM) | C[C@H]1COc2c(CN3CCCC3)c(F)cc3c(=O)c(C(=O)O)cn1c23
26 | 0.78 µg/mL | 0.78 µg/mL | 0.195 µg/mL | 0.098 µg/mL | 0.098 µg/mL | 0.098 µg/mL | C[C@H]1COc2c(N3CCN(C)CC3)c(F)cc3c(=O)c(C(=O)O)cn1c23.C[C@H]1COc2c(N3CCN(C)CC3)c(F)cc3c(=O)c(C(=O)O)cn1c23.O [LEVOFLOXACIN]
27 | 0.195 µg/mL (≈ 0.613 µM) | 0.39 µg/mL (≈ 1.23 µM) | 0.049 µg/mL (≈ 0.154 µM) | 0.049 µg/mL (≈ 0.154 µM) | 0.049 µg/mL (≈ 0.154 µM) | 0.049 µg/mL (≈ 0.154 µM) | C[C@H]1COc2c(C3(N)CC3)c(F)cc3c(=O)c(C(=O)O)cn1c23 [PAZUFLOXACIN]

Row | SMILES | MIC (Staphylococcus aureus) | MIC [1] | MIC (Streptococcus pneumoniae) | MIC (Shigella boydii) | MIC (Klebsiella pneumoniae) | MIC (Salmonella)
28 | CN[C@H](CC(C)C)C(=O)N[C@H]1C(=O)N[C@@H](CC(N)=O)C(=O)N[C@H]2C(=O)N[C@H]3C(=O)N[C@H](C(=O)N[C@H](C(=O)O)c4cc(O)cc(O)c4-c4cc3ccc4O)[C@H](O)c3ccc(c(Cl)c3)Oc3cc2cc(c3O[C@@H]2O[C@H](CO)[C@@H](O)[C@H](O)[C@H]2O[C@H]2C[C@](C)(N)[C@H](O)[C@H](C)O2)Oc2ccc(cc2Cl)[C@H]1O [VANCOMYCIN] | 0.39 µg/mL (≈ 0.269 µM) | 0.78 µg/mL (≈ 0.538 µM) | 0.098 µg/mL (≈ 0.0676 µM) | > 6.25 µg/mL | > 6.25 µg/mL | > 6.25 µg/mL
